Test results taken from patent US20240358693A1, “METHODS OF TREATING PAIN” (Aisa Pharma, Inc., priority 2023, published 2024).

Tested on: participants with SSc-RP
Assay: Average daily Raynaud's Condition Score (RCS)
Type: in vivo, human
Set-up: key to Average Daily RCS, Mean / Average Daily RCS, Median / Average Daily RCS, Change from Baseline, Mean / Average Daily RCS, Change from Baseline, Median / Average daily RCS, Baseline, Mean / Average daily RCS, Baseline, Median / Mean RCS at baseline: RCS rated on a 0-10 cm VAS scale
Conditions: for Average Daily RCS, Change from Baseline, Mean / Average Daily RCS, Change from Baseline, Median / Average Daily RCS, Percent Change from Baseline, Mean / Average Daily RCS, Percent Change from Baseline, Median / Average Daily RCS, Mean / Average Daily RCS, Median / Average Daily RCS (dosing period), Mean / Average Daily RCS (dosing period), Median / Average daily RCS, Baseline, Mean / Average daily RCS, Baseline, Median: ITT Part A; for Average Daily RCS, Mean / Average Daily RCS, Median: dosing period
Description: The RCS is based on how much difficulty participants had with Raynaud's today, how many attacks the participant had, and how long they lasted. In addition participants were and will be asked to consider how much pain, numbness, or other symptoms the Raynaud's caused in fingers (including painful sores), and how much the Raynaud's along affected the use of hand today (VAS 0-10 cm scale).
The absolute change in average daily RCS from baseline to the end of each dosing period was and will be a secondary outcome variable. The sponsor-developed participant-informed diary has been and will be used to record data. The average daily RCS is defined as the total RCS divided by the number of days with available diary data of each dosing period. Total RCS during screening period divided by the number of days with available data will be used as baseline for the analysis of all periods. If there are multiple daily RCS scores, the latest daily RCS will be used. The variable will be calculated similar to frequency data as before.

[1] = excluding outliers, dose Cilnidipine 10 mg, Tadalafil 5 mg, or 10 mg + 5 mg
[2] = excluding outliers, dose Cilnidipine 20 mg, or 20 mg + Tadalafil 5 mg
[3] = excluding outliers, pooled 10 mg and 20 mg Cilnidipine arms (combination: + Tadalafil 5 mg)
[4] = excluding outliers, pooled Cilnidipine 10 mg and Cilnidipine 10 mg + Tadalafil 5 mg
[5] = excluding outliers, pooled Cilnidipine 20 mg and Cilnidipine 20 mg + Tadalafil 5 mg
[6] = Pooled Cilnidipine 10 mg and Cilnidipine 10 mg + Tadalafil 5 mg
[7] = Pooled Cilnidipine 20 mg and Cilnidipine 20 mg + Tadalafil 5 mg

COCCOC(=O)C1=C(C)NC(C)=C(C(=O)OC/C=C/c2ccccc2)C1c1cccc([N+](=O)[O-])c1 (stereo not shown) [Cilnidipine, cilnidipine]
Average Daily RCS, Change from Baseline, Mean (Cilnidipine 10 mg): −0.98
Average Daily RCS, Change from Baseline, Median (Cilnidipine 10 mg): −0.98
Average Daily RCS, Percent Change from Baseline, Mean (Cilnidipine 10 mg): −35.74%
Average Daily RCS, Percent Change from Baseline, Median (Cilnidipine 10 mg): −35.74%
Average Daily RCS, Mean (Cilnidipine 10 mg): 1.76
Average Daily RCS, Median (Cilnidipine 10 mg): 1.76
Average Daily RCS, Change from Baseline, Mean (Cilnidipine 20 mg): −0.45
Average Daily RCS, Change from Baseline, Median (Cilnidipine 20 mg): −0.45
Average Daily RCS, Percent Change from Baseline, Mean (Cilnidipine 20 mg): −17.16%
Average Daily RCS, Percent Change from Baseline, Median (Cilnidipine 20 mg): −17.16%
Average Daily RCS, Mean (Cilnidipine 20 mg): 2.90
Average Daily RCS, Median (Cilnidipine 20 mg): 2.90
Daily RCS Change (Cilnidipine (20 mg) (n = 3)): −28%
Mean % reduction in RCS (Cilnidipine (20 mg) (n = 3)): 27.9%
Mean RCS at baseline (Cilnidipine (20 mg) (n = 3)): 3.5
Average Daily RCS (dosing period), Mean [1]: 1.76
Average Daily RCS (dosing period), Median [1]: 1.76
Average Daily RCS, Change from Baseline, Mean [1]: −0.98
Average Daily RCS, Change from Baseline, Median [1]: −0.98
Average Daily RCS, Percent Change from Baseline, Mean [1]: −35.74%
Average Daily RCS, Percent Change from Baseline, Median [1]: −35.74%
Average daily RCS, Baseline, Mean [1]: 2.74
Average daily RCS, Baseline, Median [1]: 2.74
Average Daily RCS (dosing period), Mean [2]: 2.90
Average Daily RCS (dosing period), Median [2]: 2.90
Average Daily RCS, Change from Baseline, Mean [2]: −0.45
Average Daily RCS, Change from Baseline, Median [2]: −0.45
Average Daily RCS, Percent Change from Baseline, Mean [2]: −17.16%
Average Daily RCS, Percent Change from Baseline, Median [2]: −17.16%
Average daily RCS, Baseline, Mean [2]: 3.35
Average daily RCS, Baseline, Median [2]: 3.35
Average Daily RCS (dosing period), Mean [3]: 2.52
Average Daily RCS (dosing period), Median [3]: 1.76
Average Daily RCS, Change from Baseline, Mean [3]: −0.63
Average Daily RCS, Change from Baseline, Median [3]: −0.98
Average Daily RCS, Percent Change from Baseline, Mean [3]: −23.35%
Average Daily RCS, Percent Change from Baseline, Median [3]: −35.74%
Average daily RCS, Baseline, Mean [3]: 3.15
Average daily RCS, Baseline, Median [3]: 2.80
Average Daily RCS (dosing period), Mean [4]: 2.43
Average Daily RCS (dosing period), Median [4]: 1.76
Average Daily RCS, Change from Baseline, Mean [4]: −1.64
Average Daily RCS, Change from Baseline, Median [4]: −1.51
Average Daily RCS, Percent Change from Baseline, Mean [4]: −41.77%
Average Daily RCS, Percent Change from Baseline, Median [4]: −36.47%
Average daily RCS, Baseline, Mean [4]: 4.07
Average daily RCS, Baseline, Median [4]: 2.85
Average Daily RCS (dosing period), Mean [5]: 3.60
Average Daily RCS (dosing period), Median [5]: 3.82
Average Daily RCS, Change from Baseline, Mean [5]: −1.08
Average Daily RCS, Change from Baseline, Median [5]: −0.59
Average Daily RCS, Percent Change from Baseline, Mean [5]: −18.93%
Average Daily RCS, Percent Change from Baseline, Median [5]: −20.71%
Average daily RCS, Baseline, Mean [5]: 4.68
Average daily RCS, Baseline, Median [5]: 3.74
Average Daily RCS, Change from Baseline, Mean [6]: −1.64
Average Daily RCS, Change from Baseline, Median [6]: −1.51
Average Daily RCS, Percent Change from Baseline, Mean [6]: −41.77%
Average Daily RCS, Percent Change from Baseline, Median [6]: −36.47%
Average Daily RCS, Mean [6]: 2.43
Average Daily RCS, Median [6]: 1.76
Average Daily RCS, Change from Baseline, Mean [7]: −1.08
Average Daily RCS, Change from Baseline, Median [7]: −0.59
Average Daily RCS, Percent Change from Baseline, Mean [7]: −18.93%
Average Daily RCS, Percent Change from Baseline, Median [7]: −20.71%
Average Daily RCS, Mean [7]: 3.60
Average Daily RCS, Median [7]: 3.82
Daily RCS Change (Pooled Cilnidipine (n = 7), this value n = 3): 12% (n = 3)
Average Daily RCS, Change from Baseline, Mean (Pooled Cilnidipine): −0.63
Average Daily RCS, Change from Baseline, Median (Pooled Cilnidipine): −0.98
Average Daily RCS, Percent Change from Baseline, Mean (Pooled Cilnidipine): −23.35%
Average Daily RCS, Percent Change from Baseline, Median (Pooled Cilnidipine): −35.74%
Average Daily RCS, Mean (Pooled Cilnidipine): 2.52
Average Daily RCS, Median (Pooled Cilnidipine): 1.76

CN1CC(=O)N2[C@H](c3ccc4c(c3)OCO4)c3[nH]c4ccccc4c3C[C@@H]2C1=O [Tadalafil, tadalafil]
Average Daily RCS (dosing period), Mean [1]: 4.46
Average Daily RCS (dosing period), Median [1]: 4.46
Average Daily RCS, Change from Baseline, Mean [1]: −1.58
Average Daily RCS, Change from Baseline, Median [1]: −1.58
Average Daily RCS, Percent Change from Baseline, Mean [1]: −26.18%
Average Daily RCS, Percent Change from Baseline, Median [1]: −26.18%
Average daily RCS, Baseline, Mean [1]: 6.04
Average daily RCS, Baseline, Median [1]: 6.04
Average Daily RCS, Change from Baseline, Mean (Tadalafil 5 mg): −0.67
Average Daily RCS, Change from Baseline, Median (Tadalafil 5 mg): −0.67
Average Daily RCS, Percent Change from Baseline, Mean (Tadalafil 5 mg): −11.76%
Average Daily RCS, Percent Change from Baseline, Median (Tadalafil 5 mg): −11.76%
Average Daily RCS, Mean (Tadalafil 5 mg): 7.05
Average Daily RCS, Median (Tadalafil 5 mg): 7.05
